Test results taken from patent US20240327359A1, “3-ISOXAZOLIDINONE COMPOUND, PREPARATION METHOD, HERBICIDAL COMPOSITION AND APPLICATION THEREOF” (QINGDAO KINGAGROOT CHEMICAL COMPOUND CO., LTD., priority 2021, published 2024).
Like-named read-outs stand apart in the source and are kept apart here.

Assays:
Echinochloa crusgalli = experiment: Activity test of the compositions, post-emergence treatment by foliage spray; assay type: in vivo; details: foliage (F)
Experimental: (§1) The desired active ingredient B was purchased from a reagent company or synthesized by a known method. The technical materials were all dissolved in acetone and diluted with an aqueous solution containing 0.10% emulsifier Tween-80 which were to be used immediately after dilution.
Weeds were cultivated by a pot culture method. […] Weed seeds with plump and uniform grains were selected, soaked in lukewarm water at 25° C. for 6 hours, and germinated in a 28° C. biochemical incubator (in darkness). The weed seeds that had just germinated were evenly placed on the surface of the soil and then covered with 0.5-1 cm soil according to the sizes of seeds.
The culture was carried out in a controllable sunlight greenhouse at 20 to 30° C., in natural light, and with relative humidity of 57% to 72%.
(§2) Each treatment was repeated 4 times. Four pots with 20 weed seeds per pot were treated each time.
The agents were used for only once in total in the experiment. In the stage of 1.5-2 leaves, the weeds were thinned out to maintain 10 weeds per pot. Ten weeds were kept in each treatment, then continued to be cultured until Echinochloa crus-galli var. zelayensis reached the stage of 2-3 leaves, Cirsium setosum reached the stage of 5-6 leaves, Galium aparine reached the stage of 3-4 whorl leaves, Amaranthus retroflexus reached the stage of 3-5 leaves, Echinochloa crusgalli, Lolium multiflorum and Digitaria sanguinalis reached the stage of 3 leaves with one leaf not fully expanding for further treatment.
(§3) The well-cultured test materials were evenly placed on a platform with an area of 0.5 m^2, and solution of agents was sprayed on the stems and leaves thereof by the 3WP-2000-type walking spray tower at a dosage of 450 kg/ha and at a spray pressure of 0.3 MPa. After all the solution was sprayed, the valve was closed. After 30 seconds, the door of the spray tower was opened, and the nutritional bowl was taken out. Then the valve was opened, and the spray tube was cleaned by spraying 50 ml of water. After the treatment, the weeds were routinely cultured in a greenhouse.
(§4) A method for investigating absolute numbers was employed. Whole seedlings of survival weeds were cut off with a blade along the soil surface, and the fresh weight of the weeds was weighed with an analytical balance. For dead weeds, the fresh weight thereof was zero.
(§5) The investigation was performed 21 days after the treatment for only once in total.

weeds = experiment: Activity test of the compositions, soil sealing treatment; assay type: in vivo
Experimental: as §1
Weeds are cultivated in a controllable sunlight greenhouse at 20 to 30° C., in natural light, and with relative humidity of 57% to 72%. […] The test soil was filled quantitatively to ¾ of the pots and then watered from the bottom of the pots to completely wet the soil to saturation. The test weed seeds were accelerated to just germinate, and then evenly and quantitatively sowed on the surface, then covered with 0.5-1 cm soil according to the seed size, and ready for use 72 hours after sowing.
as §2
as §3, with “well-sowed” for “well-cultured”, “soil” for “stems and leaves thereof”, “water.” for “water. After the treatment, the weeds were routinely cultured in a greenhouse.”
as §4, §5

[1] = Lolium multiflorum, soil (S), B 16 g a.i./mu, read-out: Control effect (%) of B applied alone (B)
[2] = Lolium multiflorum, soil (S), B 32 g a.i./mu, read-out: Control effect (%) of B applied alone (B)
[3] = Echinochloa crusgalli, soil (S), B 2 g a.i./mu
[4] = Echinochloa crusgalli, soil (S), B 4 g a.i./mu
[5] = Lolium multiflorum, soil, read-out: Control effect (%) of B applied alone (B)
[6] = Echinochloa crus-galli, soil, read-out: Control effect (%) of B applied alone (B)
[7] = Potamogeton distinctus, soil, read-out: Control effect (%) of B applied alone (B)
[8] = Echinochloa crusgalli, soil (S), B 0.5 g a.i./mu

## COc1cc(OC)nc(Oc2cccc(Oc3nc(OC)cc(OC)n3)c2C(=O)O)n1 [bispyribac]
Echinochloa crusgalli; B 0.6 g a.i./mu
  Control effect (%) of B applied alone (B): 30.7%
Echinochloa crusgalli; B 1.2 g a.i./mu
  Control effect (%) of B applied alone (B): 42. %

## CCn1ncc(C(=O)c2ccc(S(C)(=O)=O)c(COCC(F)(F)F)c2Cl)c1OC(=O)c1cn(C)nc1C [fenpyrazone]
Echinochloa crusgalli; B 1.5 g a.i./mu
  Control effect (%) of B applied alone (B): 32.6%
Echinochloa crusgalli; B 3 g a.i./mu
  Control effect (%) of B applied alone (B): 50.7%

## COc1c(Cl)ccc(-c2nc(C(=O)O)c(Cl)c(N)c2F)c1F [florpyrauxifen]
Echinochloa crusgalli; B 0.5 g a.i./mu
  Control effect (%) of B applied alone (B): 22.5%
Echinochloa crusgalli; B 1 g a.i./mu
  Control effect (%) of B applied alone (B): 41.3%

## CCOc1cc(Oc2ccc(C(F)(F)F)cc2Cl)ccc1[N+](=O)[O-] [oxyfluorfen]
weeds; Digitaria sanguinalis, soil (S), B 1 g a.i./mu, read-out: Control effect (%) of B applied alone (B)
  pest or weed control at 15 g/ha: 28.6%
weeds; Digitaria sanguinalis, soil (S), B 2 g a.i./mu, read-out: Control effect (%) of B applied alone (B)
  pest or weed control at 30 g/ha: 39.5%

## CCC(CC)Nc1c([N+](=O)[O-])cc(C)c(C)c1[N+](=O)[O-] [pendimethalin]
weeds; [1]
  pest or weed control at 240 g/ha: 23.6%
weeds; [2]
  pest or weed control at 480 g/ha: 42.7%

## CS(=O)(=O)c1ccc(C(=O)C2=C(Sc3ccccc3)C3CCC(C3)C2=O)c(Cl)c1 (centres unmarked) [benzobicyclon]
weeds; [3]
  Control effect (%) of B applied alone (B): 22.6%
weeds; [4]
  Control effect (%) of B applied alone (B): 42.8%

## CN(C)C(=O)Nc1ccc(Cl)c(Cl)c1 [diuron]
weeds; [5]
  pest or weed control at 600 g/ha: 39.4%
  pest or weed control at 1200 g/ha: 65.3%

## CC(C)CCCCCOC(=O)COc1ccc(Cl)cc1Cl [2,4-D isooctyl ester]
weeds; Veronica didyma, soil (S), B 6 g a.i./mu
  Control effect (%) of B applied alone (B): 33.6%
weeds; Veronica didyma, soil (S), B 12 g a.i./mu
  Control effect (%) of B applied alone (B): 42.5%

## COCC(C)N(C(=O)CCl)c1c(C)csc1C (centres unmarked) [dimethenamid]
weeds; Echinochloa crus-galli, Echinochloa crusgalli, soil (S), B 6 g a.i./mu, read-out: Control effect (%) of B applied alone (B)
  pest or weed control at 90 g/ha: 31.5%
weeds; Echinochloa crus-galli, Echinochloa crusgalli, soil (S), B 12 g a.i./mu, read-out: Control effect (%) of B applied alone (B)
  pest or weed control at 180 g/ha: 43.7%

## CC(C)N(C(=O)n1cnn(-c2ccc(Cl)cc2Cl)c1=O)c1ccc(F)cc1F [ipfencarbazone]
weeds; [3]
  Control effect (%) of B applied alone (B): 41.5%
weeds; [4]
  Control effect (%) of B applied alone (B): 57.6%

## CSC(=O)c1c(C(F)F)nc(C(F)(F)F)c(C(=O)SC)c1CC(C)C [dithiopyr]
weeds; Echinochloa crus-galli, Echinochloa crusgalli, soil (S), B 4 g a.i./mu, read-out: Control effect (%) of B applied alone (B)
  pest or weed control at 60 g/ha: 40.1%
weeds; Echinochloa crus-galli, Echinochloa crusgalli, soil (S), B 8 g a.i./mu, read-out: Control effect (%) of B applied alone (B)
  pest or weed control at 120 g/ha: 53.2%

## CCC(C)Nc1c([N+](=O)[O-])cc(C(C)(C)C)cc1[N+](=O)[O-] (centres unmarked) [butralin]
weeds; [5]
  pest or weed control at 240 g/ha: 19.5%
  pest or weed control at 480 g/ha: 35.8%

## CCSC(=O)N1CCCCCC1 [molinate]
weeds; Echinochloa crus-galli, Echinochloa crusgalli, soil (S), B 20 g a.i./mu, read-out: Control effect (%) of B applied alone (B)
  pest or weed control at 300 g/ha: 39.6%
weeds; Echinochloa crus-galli, Echinochloa crusgalli, soil (S), B 40 g a.i./mu, read-out: Control effect (%) of B applied alone (B)
  pest or weed control at 600 g/ha: 51.7%

## CCNc1nc(Cl)nc(NC(C)(C)C)n1 [terbutylazine]
weeds; Echinochloa crusgalli, soil (S), B 6 g a.i./mu
  Control effect (%) of B applied alone (B): 33.8%
weeds; Echinochloa crusgalli, soil (S), B 12 g a.i./mu
  Control effect (%) of B applied alone (B): 52.7%

## O=C(Nc1ccc(F)cc1F)c1cccnc1Oc1cccc(C(F)(F)F)c1 [diflufenican]
weeds; Lolium multiflorum, soil (S), B 1 g a.i./mu, read-out: Control effect (%) of B applied alone (B)
  pest or weed control at 15 g/ha: 37.1%
weeds; Lolium multiflorum, soil (S), B 2 g a.i./mu, read-out: Control effect (%) of B applied alone (B)
  pest or weed control at 30 g/ha: 52.4%

## Cc1ccc(NC(=O)N(C)C)cc1Cl [chlorotoluron]
weeds; Alopecurus japonicus, soil (S), B 15 g a.i./mu, read-out: Control effect (%) of B applied alone (B)
  pest or weed control at 225 g/ha: 34.2%
weeds; Alopecurus japonicus, soil (S), B 30 g a.i./mu, read-out: Control effect (%) of B applied alone (B)
  pest or weed control at 450 g/ha: 58.3%

## COC[C@H](C)N(C(=O)CCl)c1c(C)csc1C [dimethenamid-P]
weeds; [4]
  Control effect (%) of B applied alone (B): 34.2%
weeds; Echinochloa crusgalli, soil (S), B 8 g a.i./mu
  Control effect (%) of B applied alone (B): 47.5%

## CC(C)=C1OC(=O)N(c2cc(OC3CCCC3)c(Cl)cc2F)C1=O [pentoxazone]
weeds; [6]
  pest or weed control at 30 g/ha: 40.1%
  pest or weed control at 60 g/ha: 57.3%

## COc1cc(OC)nc(NC(=O)NS(=O)(=O)c2c(C(=O)O)c(Cl)nn2C)n1 [halosulfuron]
weeds; Veronica polita, Veronica didyma, soil (S), B 0.5 g a.i./mu, read-out: Control effect (%) of B applied alone (B)
  pest or weed control at 7.5 g/ha: 34.8%
weeds; Veronica polita, Veronica didyma, soil (S), B 1 g a.i./mu, read-out: Control effect (%) of B applied alone (B)
  pest or weed control at 15 g/ha: 54.6%

## CCNc1nc(NCC)nc(SC)n1 [simetryn]
weeds; [7]
  pest or weed control at 90 g/ha: 41.5%
  pest or weed control at 180 g/ha: 58.3%

## CN1C[C@H](c2cccc(C(F)(F)F)c2)[C@@H](C(=O)Nc2ccccc2F)C1=O [tetflupyrolimet]
weeds; Echinochloa crusgalli, soil treatment (S), B at 1 g a.i./mu, 21 days
  Control effect (%) of B applied alone (B): 34.7%
weeds; Echinochloa crusgalli, soil treatment (S), B at 2 g a.i./mu, 21 days
  Control effect (%) of B applied alone (B): 55.6%

## CCCCOCN(C(=O)CCl)c1c(CC)cccc1CC [butachlor]
weeds; [1]
  pest or weed control at 240 g/ha: 28.8%
weeds; [2]
  pest or weed control at 480 g/ha: 46.4%

## CCOC(=O)COc1ncccc1Oc1cc(-n2c(=O)cc(C(F)(F)F)n(C)c2=O)c(F)cc1Cl [epyrifenacil]
weeds; Amaranthus retroflexus, soil (S), B 0.5 g a.i./mu
  Control effect (%) of B applied alone (B): 36.9%
weeds; Amaranthus retroflexus, soil (S), B 1 g a.i./mu
  Control effect (%) of B applied alone (B): 47.1%

## Cc1ccccc1CO[C@@H]1C[C@@]2(C(C)C)CC[C@]1(C)O2 (racemic) [cinmethylin]
weeds; Echinochloa crus-galli, Echinochloa crusgalli, soil (S), B 0.4 g a.i./mu, read-out: Control effect (%) of B applied alone (B)
  pest or weed control at 6 g/ha: 26.4%
weeds; Echinochloa crus-galli, Echinochloa crusgalli, soil (S), B 0.8 g a.i./mu, read-out: Control effect (%) of B applied alone (B)
  pest or weed control at 12 g/ha: 38.6%

## CC(C)c1ccc(NC(=O)N(C)C)cc1 [isoproturon]
weeds; Alopecurus japonicus, soil (S), B 8 g a.i./mu, read-out: Control effect (%) of B applied alone (B)
  pest or weed control at 120 g/ha: 41.5%
weeds; Alopecurus japonicus, soil (S), B 16 g a.i./mu, read-out: Control effect (%) of B applied alone (B)
  pest or weed control at 240 g/ha: 53.6%

## CSc1nnc(C(C)(C)C)c(=O)n1N [metribuzin]
weeds; Amaranthus retroflexus, soil (S), B 5 g a.i./mu, read-out: Control effect (%) of B applied alone (B)
  pest or weed control at 75 g/ha: 40.5%
weeds; Amaranthus retroflexus, soil (S), B 10 g a.i./mu, read-out: Control effect (%) of B applied alone (B)
  pest or weed control at 150 g/ha: 56.2%

## COc1ccc(-n2c(=O)c(C(=O)C3C(=O)CCCC3=O)nc3c(Cl)cccc32)cc1 [fenquinotrione]
weeds; Lolium multiflorum, soil (S), B 1.5 g a.i./mu
  Control effect (%) of B applied alone (B): 28.6%
weeds; Lolium multiflorum, soil (S), B 3 g a.i./mu
  Control effect (%) of B applied alone (B): 44.1%

## CCc1cnc(C2=NC(C)(C(C)C)C(=O)N2)c(C(=O)O)c1 (centres unmarked) [imazethapyr]
weeds; Echinochloa crus-galli, Echinochloa crusgalli, soil (S), B 1 g a.i./mu, read-out: Control effect (%) of B applied alone (B)
  pest or weed control at 15 g/ha: 33.4%
weeds; Echinochloa crus-galli, Echinochloa crusgalli, soil (S), B 2 g a.i./mu, read-out: Control effect (%) of B applied alone (B)
  pest or weed control at 30 g/ha: 43.8%

## COP(=S)(OC)SCC(=O)N(c1ccc(Cl)cc1)C(C)(C)C [anilofos]
weeds; [6]
  pest or weed control at 30 g/ha: 23.1%
  pest or weed control at 60 g/ha: 32.6%

## C#CCOc1cc(-n2nc(C(C)(C)C)oc2=O)c(Cl)cc1Cl [oxadiargy1]
weeds; [8]
  Control effect (%) of B applied alone (B): 36.2%
weeds; Echinochloa crusgalli, soil (S), B 1 g a.i./mu
  Control effect (%) of B applied alone (B): 47.9%

## COc1nc(OC)nc(C(=O)c2cccc(F)c2N(C)S(=O)(=O)C(F)F)n1 [triafamone]
weeds; Echinochloa crusgalli, soil (S), B 0.25 g a.i./mu
  Control effect (%) of B applied alone (B): 27.6%
weeds; [8]
  Control effect (%) of B applied alone (B): 38.4%
